Each compound was assayed on HIV-1 (assay: Luciferase Replication assay). Details: Human immunodeficiency virus 1, U87/CD4/CCR5, 72 h.
Assay type: cell-based
Experimental: Luciferase Replication Assay:
Plasmids encoding the full length genome of HIV-1 pNL-4-Luc with the gp 120 V-3 loop replaced by the Bgl II fragment of HIV-1 ADA, YU-2 or HxB (ADA-Luc-FL, YU-2-Luc-FL and HxB-Luc-FL) were obtained from Dr. Susan Pontow (Washington University, St. Louis Mo.). Replication-competent luciferase reporter virus stocks were generated by transfection of plasmids into 293T cells using Superfect (Qiagen) or Mirus transfection reagents. Viral stocks were collected 48 hours following transfection and titered for luciferase production on U-87-CCR5 or CXCR4 cells. U87-CD4-CCR5 cells ([…]) were plated in 96-well cell culture plates and incubated overnight. Media was removed and replaced with 50 μl of fresh culture media (DMEM, 10% FCS) and 50 μl of compound diluted in culture medium. Cells were incubated with compound at 37° C. for 1 hour. The resultant supernatant was removed and replaced with 20 μl of media containing compound and infected with an equal volume of diluted or undiluted virus stock at 37° C. for 3-4 hours. The cells were washed once with DMEM, and 200 μl of media containing compound was added. The cultures were incubated for 3 days, the cells lysed in luciferase lysis buffer (Promega, Madison, Wis.) and transferred to Immulon plates (Dynex Technologies, Chantilly Va.). An equal volume of luciferase substrate (Promega, Madison Wis.) was added to lysates and the plates read immediately in a Wallac Luminometer. Fifty and ninety percent inhibitory concentrations were determined using GraphPad PRISM software.
`Cc1ncnc(C)c1C(=O)N1CCC(C)(N2CCC(N(Cc3ccccc3)c3ccc(CC(=O)N4CCCC4)cc3)CC2)CC1` showed an IC50 of 0.13 nM.
Work on `CCN(CC)C(=O)[C@@H](O)c1ccc(N(Cc2ccccc2)C2CCN(C3(C)CCN(C(=O)c4c(C)ncnc4C)CC3)CC2)cc1` yielded an IC50 of 0.16 nM.
With `Cc1ncnc(C)c1C(=O)N1CCC(C)(N2CCC(N(Cc3ccccc3)c3ccc(S(=O)(=O)CCO)cc3)CC2)CC1` the IC50 was 0.17 nM.
With `Cc1ncnc(C)c1C(=O)N1CCC(C)(N2CCC(N(Cc3ccccc3)c3ccc(C(C)(C)C(=O)N4CCOCC4)cc3)CC2)CC1` the IC50 was 0.14 nM.
For `Cc1ncnc(C)c1C(=O)N1CCC(C)(N2CCC(N(Cc3ccccc3)c3ccn(C)c(=O)c3)CC2)CC1`, the IC50 was 0.15 nM.
`Cc1ncnc(C)c1C(=O)N1CCC(C)(N2CCC(N(Cc3ccccc3)c3ccc(CN4CC[C@H](NS(=O)(=O)C5CC5)C4=O)cc3)CC2)CC1` gave an IC50 of 0.14 nM.
Work on `Cc1cc(N)cc(C)c1C(=O)N1CCC(C)(N2CCC(N(Cc3ccccc3)c3ccc(C(C)(C)C(=O)N4CCOCC4)cc3)CC2)CC1` yielded an IC50 of 0.13 nM.
`Cc1ncnc(C)c1C(=O)N1CCC(C)(N2CCC(N(Cc3ccccc3)c3ccc(C(C)(C)C(=O)N4CCCCC4)cc3)CC2)CC1` showed an IC50 of 0.18 nM.
In the case of `Cc1ncnc(C)c1C(=O)N1CCC(C)(N2CCC(N(Cc3ccccc3)c3ccc(CC#N)cc3)CC2)CC1`, the IC50 is reported as 0.14 nM.
`Cc1ncnc(C)c1C(=O)N1CCC(C)(N2CCC(N(Cc3ccccc3)c3ccc(CNC(=O)[C@H](O)c4ccccc4)cc3)CC2)CC1` was tested, and the IC50 was 0.19 nM.
With `CCNC(=O)Nc1cc(C)c(C(=O)N2CCC(C)(N3CCC(N(Cc4ccccc4)c4ccc(CC(=O)N5CCOCC5)cc4)CC3)CC2)c(C)c1` the IC50 was 0.19 nM.
`Cc1cc(O)cc(C)c1C(=O)N1CCC(C)(N2CCC(N(Cc3ccccc3)c3ccc(C(C)(C)C(=O)N4CCOCC4)cc3)CC2)CC1` was tested, and the IC50 was < 0.1 nM.
`Cc1cc(NS(C)(=O)=O)cc(C)c1C(=O)N1CCC(C)(N2CCC(N(Cc3ccccc3)c3ccc(C(C)(C)C(=O)N4CCOCC4)cc3)CC2)CC1` gave an IC50 of 0.16 nM.
